The results in this text go back to patent US8008292B2, “Condensed benzamide compounds and inhibitors of vanilloid receptor subtype 1 (VR1) activity” (Japan Tobacco Inc., priority 2004, dated 2011).

The assay addresses T1, human VR1 (Homo sapiens, UniProt Q8NER1).
T1 construct: expressed in transfected cells
The assay is described as follows: Inhibition of Ca2+ entry in cells caused by proton, in rat glioma (C6BU1) cells stably expressing human VR1 (Fura 2 fluorescence). As to conditions: inhibition of proton-induced Ca2+ entry. The format is cell-based. The gist of the method: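 Fura 2-loaded C6BU1 cells in 20 mM MES buffer pH 6.8 with added Ca2+ were preincubated 10 min with compound (final 1 μM to 0.1 nM, 1% DMSO). Proton stimulation brought pH to 5.5. Fluorescence rise was measured, and IC50 was derived from % inhibition versus DMSO control.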

T1 sequence (Q8NER1 whole entry): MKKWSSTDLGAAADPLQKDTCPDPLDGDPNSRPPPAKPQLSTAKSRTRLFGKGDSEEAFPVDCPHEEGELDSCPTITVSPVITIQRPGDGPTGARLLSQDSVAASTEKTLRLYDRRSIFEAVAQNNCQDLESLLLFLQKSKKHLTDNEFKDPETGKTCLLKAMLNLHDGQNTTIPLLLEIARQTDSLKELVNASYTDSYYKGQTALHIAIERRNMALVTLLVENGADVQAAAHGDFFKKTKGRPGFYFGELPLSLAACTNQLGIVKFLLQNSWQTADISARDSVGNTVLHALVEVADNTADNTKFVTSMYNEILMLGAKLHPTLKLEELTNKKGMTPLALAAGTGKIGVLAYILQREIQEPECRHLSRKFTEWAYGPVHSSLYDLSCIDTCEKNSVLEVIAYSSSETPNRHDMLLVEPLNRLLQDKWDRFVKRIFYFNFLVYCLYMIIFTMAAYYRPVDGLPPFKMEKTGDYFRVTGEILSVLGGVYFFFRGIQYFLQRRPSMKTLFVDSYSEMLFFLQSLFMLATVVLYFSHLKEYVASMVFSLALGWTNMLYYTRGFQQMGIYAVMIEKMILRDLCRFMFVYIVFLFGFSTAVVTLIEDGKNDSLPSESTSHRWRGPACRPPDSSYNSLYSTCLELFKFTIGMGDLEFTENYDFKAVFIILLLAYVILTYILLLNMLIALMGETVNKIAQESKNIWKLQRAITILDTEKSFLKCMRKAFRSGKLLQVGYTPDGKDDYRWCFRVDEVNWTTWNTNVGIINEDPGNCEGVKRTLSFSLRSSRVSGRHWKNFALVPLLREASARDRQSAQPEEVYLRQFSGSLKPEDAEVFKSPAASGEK

Broadly, the IC50 is the concentration needed to halve the response being measured. A higher IC50 goes with a need for much substance. In turn, `Cc1cnc(N2c3cccc(C(=O)Nc4ccc(N5CCOCC5)c(F)c4)c3OC[C@@H]2CO)s1` [Example 6-9] returned an IC50 of under 100 nM.

As for `Cc1cnc(N2c3cccc(C(=O)Nc4ccc(C(F)(F)F)nc4)c3OC[C@@H]2CO)s1` [Example 6-10], the IC50 is under 100 nM. Consider `Cc1cnc(N2c3cccc(C(=O)Nc4ccc(OC(F)(F)F)cc4)c3OC[C@@H]2CO)o1` [Example 6-11, (S)-3-hydroxymethyl-4-(5-methyloxazol-2-yl)-N-(4-trifluoromethoxyphenyl)-3,4-dihydro-2H-benzo[1,4]oxazine-8-carboxamide], for which the IC50 is under 100 nM.

As for `Cc1cnc(N2c3cccc(C(=O)Nc4ccc(C(F)(F)F)cc4)c3OC[C@@H]2CO)o1` [Example 6-12, (S)-3-hydroxymethyl-4-(5-methyloxazol-2-yl)-N-(4-trifluoromethylphenyl)-3,4-dihydro-2H-benzo[1,4]oxazine-8-carboxamide], the IC50 is under 100 nM. Then `Cc1nc(N2c3cccc(C(=O)Nc4ccc(OC(F)(F)F)cc4)c3OC[C@@H]2CO)sc1C` [Example 6-13, (S)-4-(4,5-dimethylthiazol-2-yl)-3-hydroxymethyl-N-(4-trifluoromethoxyphenyl)-3,4-dihydro-2H-benzo[1,4]oxazine-8-carboxamide], with under 100 nM; and `Cc1nc(N2c3cccc(C(=O)Nc4ccc(C(F)(F)F)cc4)c3OC[C@@H]2CO)sc1C` [Example 6-14, (S)-4-(4,5-dimethylthiazol-2-yl)-3-hydroxymethyl-N-(4-trifluoromethylphenyl)-3,4-dihydro-2H-benzo[1,4]oxazine-8-carboxamide], with under 100 nM. As for `COc1ccc(N2CCOc3c(C(=O)Nc4ccc(C(C)(C)C)cc4)cccc32)cc1` [Example 7-01, N-(4-tert-butylphenyl)-4-(4-methoxyphenyl)-3,4-dihydro-2H-benzo[1,4]oxazine-8-carboxamide], the figure is under 100 nM; as for `COc1ccc(N2CCOc3c(C(=O)Nc4ccc(OCC(C)C)cc4)cccc32)cc1` [Example 7-02, N-(4-isobutyloxyphenyl)-4-(4-methoxyphenyl)-3,4-dihydro-2H-benzo[1,4]oxazine-8-carboxamide], under 100 nM. Then `COc1ccc(N2CCOc3c(C(=O)Nc4ccc(Cl)cc4)cccc32)cc1` [Example 7-03, N-(4-chlorophenyl)-4-(4-methoxyphenyl)-3,4-dihydro-2H-benzo[1,4]oxazine-8-carboxamide], with under 100 nM; and `O=C(Nc1ccc(OC(F)(F)F)cc1)c1cccc2c1OC[C@H](CO)N2c1ccccc1Cl` [Example 7-04, (S)-4-(2-chlorophenyl)-3-hydroxymethyl-N-(4-trifluoromethoxyphenyl)-3,4-dihydro-2H-benzo[1,4]oxazine-8-carboxamide], with under 100 nM. `O=C(Nc1ccc(C(F)(F)F)cc1)c1cccc2c1OC[C@H](CO)N2c1ccccc1Cl` [Example 7-05] gave a 50% inhibitory concentration (IC50) of under 100 nM.

Turning to `O=C(Nc1ccc(C(F)(F)F)c(F)c1)c1cccc2c1OC[C@H](CO)N2c1ccccc1Cl` [Example 7-06], the concentration for half-maximal inhibition (IC50) was under 100 nM.

In turn, `O=C(Nc1ccc(OC(F)(F)F)cc1)c1cccc2c1OC[C@H](CO)N2c1ccc(Cl)cc1` [Example 7-07] showed an IC50 of under 100 nM.

`COc1ccc(N2c3cccc(C(=O)Nc4ccc(OC(F)(F)F)cc4)c3OC[C@@H]2CO)cc1` [Example 7-08] came in with a half-maximal inhibitory concentration (IC50) of under 100 nM.

`COc1ccc(N2c3cccc(C(=O)Nc4ccc(C(F)(F)F)cc4)c3OC[C@@H]2CO)cc1` [Example 7-09] showed an IC50 of under 100 nM. In turn, `O=C(Nc1ccc(C(F)(F)F)cc1)c1cccc2c1OC[C@H](CO)N2c1ccc(Cl)cc1` [Example 7-10] came in with an IC50 of under 100 nM. As for `O=C(Nc1ccc(Cl)cc1)c1cccc2c1OC[C@H](CO)N2c1ccc(Cl)cc1` [Example 7-11], the figure is under 100 nM.
